Data set [1] in a line: Surfactant properties of purified compounds (oil dispersion, surface tension, emulsification). The format is physicochemical. The following applies: purified compound. The method, then:
The purified compounds from the crude biosurfactants were analyzed for oil dispersion (OD), surface tension and emulsification activities using the standard protocols as mentioned in methodology. […] The low CMC value 0.3 mg/ml for crude biosurfactant results from mixture of compounds in compare to purified single compound.

Details of data set [2]: Surface tension reduced to: unit not given here. The following applies: cited from earlier work.
The subject of a further data set is Artemia salina. Briefly: Toxicity on microcrustacean Artemia salina (mortality after 24 h). Particulars: 24 h at 28 °C, artificial sea water. The format is in vivo. The protocol: The toxicity of bio-surfactants on microcrustacean Artemia salina was performed in artificial sea water with 30 g/L (w/v) NaCl. Different concentrations like, 10 μg/ml, 100 μg/ml and 1000 μg/ml of crude bio-surfactant and purified compound-1 was supplemented in artificial sea salt solution (pH 8.0) and inoculated with 20 numbers of micro-crustacean A. salina in 10 ml per tube of solution and incubated for 24 h at 28° C. under artificial light condition.
The toxicity of bio-surfactants was determined by calculating the mortality rate against the control (in triplicate) after 24 h incubation. The effect of biosurfactants on the microorganisms was studied in minimal salt medium (MSM) to determine the utilization or degradation pattern of bio-surfactant in presence of Pseudomonas aeruginosa NCIM 2037, Arthrobacter sp NCIM 5452 and Rhodococcus sp NCIM 5488. The minimal salt medium was supplemented with 100 ppm of crude biosurfactant and inoculated with all three strains and incubated at 30° C., 150 rpm for 72 h. Effect of biosurfactants on growth of test strains were determined through measuring the optical density at 620 nm after incubation of 72 h.

On to `CC(C)CCCCCCCCCCCCC(O)CC(=O)O` (stereo not drawn) [compound-2, 3-Hydroxy-16-methylheptadecanoic acid], for which, in data set [1], the “Surface properties (oil dispersion, surface tension, emulsification activity)” value was “not active”.

With Aneurinifactin, the “Surface tension reduced to” value in data set [2] (reported biosurfactant) is recorded as 26. Also, the CMC value in data set [2] (reported biosurfactants) is 0.026 mg/mL.

Turning to `C=CCCCCCCCCCCCCCCCCCCCCCCCCCCCCCCCCCCCCCCCCCCCCCCCCCCCCCCCCCCCCCCCCCCCCCCCCCCCCCCCCCCCCCCCCCCCCC` [compound-1, 1-Pentanonacontene], the figures for the Mortality with Artemia salina (10 μg/ml), in the data set with Artemia salina (100 μg/ml) and with Artemia salina (1000 ug/ml) were 59%, 61% and 68%, respectively. Also, the E24 for n-hexane in data set [1] was 40%. In data set [1], this compound displayed an Oil dispersion efficiency of 93.75%. Besides, the “Surface tension of distilled water decreased to” value in data set [1] (distilled water 71.41±0.069 mN/m) is on record as 28.53±0.02 mN/m.
